{
  "source": "patent US20210238169A1",
  "about": "“PROCESS FOR PREPARING A COMPOUND OF FORMULA (XIII)” (PULMOCIDE LIMITED, priority 2014, published 2021)",
  "key": {"[1]": {"system": "Aspergillus fumigatus isolates", "assay": "Broth microdilution assay of planktonic fungal growth (modified EUCAST)", "format": "cell-based", "conditions": "Aspergillus fumigatus; isolate NCPF7100, broth microdilution; read-out: MIC75"}, "[2]": {"assay": "Fungus panel screening, CLSI broth microdilution", "format": "cell-based, Aspergillus pullulans", "conditions": "Aspergillus", "experimental": "Fungus panel screening was conducted by Eurofins Panlabs Inc. The MIC and MIC50 values of the test articles were determined following the guidelines of the Clinical and Laboratory Standards Institute, broth microdilution methods for yeast (CLSI M27-A2), (CLSI, 2002) and for filamentous fungi (CLSI M38-A), (CLSI, 2008)."}, "[3]": {"assay": "Cell viability: resazurin assay", "format": "cell-based, human", "conditions": "human, n = 1-5", "experimental": "BEAS2B cells were seeded in 384-well plates (100 μL; 3000/well/; BD Falcon, Catalogue No 353962) in RPMI-LHC8 (RPMI-1640 and LHC8 media combined in equal proportions) one day before experimentation. For cell-free control wells, RPMI-LHC8 (100 μL) was added. Test compounds (0.5 μL of a DMSO solution) were added to give a final DMSO concentration of 0.5% using an Integra VIAFLO 96 (Integra, Zizers, Switzerland). BEAS2B cells were incubated with each test compound for 1 day (37° C./5% CO2 in RPMI-LHC8). After addition of resazurin stock solution (5 μL, 0.04%) the plates were incubated for a further 4 hr (37° C./5% CO2). The fluorescence of each well at 545 nm (excitation) and 590 nm (emission) was determined using a multi-scanner (Clariostar: BMG Labtech). The percentage loss of cell viability was calculated for each well relative to vehicle (0.5% DMSO) treatment. Where appropriate, a CC50 value was calculated from the concentration-response curve generated from the concentration-response curve for each test compound."}, "[4]": {"system": "Aspergillus fumigatus (NCPF2010)", "assay": "Resazurin-microtitre assay of planktonic fungal growth", "format": "cell-based", "conditions": "Aspergillus fumigatus; for MIC: read-out: Planktonic fungal growth MIC75", "experimental": "This assay was conducted using a modified, published method (Monteiro et al., 2012). Spores of Aspergillus fumigatus (NCPF2010, Public Health England, Wiltshire) were cultured in Sabouraud dextrose agar for 3 days. A stock spore suspension was prepared from a Sabouraud dextrose agar culture by washing with PBS-tween (10 mL; PBS containing 0.05% Tween-20, 100 U/mL Penicillin and 100 U/mL Streptomycin). The spore count was assessed using a Neubauer haemocytometer and, using PBS, adjusted to 10^6 spores/mL. A working suspension of spores (10^4 spores/mL) was prepared in filter sterilised MOPS RPMI-1640 (50 mL; RPMI-1640 containing 2 mM L-glutamine, 2% glucose and 0.165 M MOPS, buffered to pH 7 with NaOH). Resazurin sodium salt (100 μL of 1% solution; Sigma-Aldrich, Dorset, UK) was added to the spore suspension and mixed well. The spore suspension-resazurin mixture (100 μL/well) was added to 384-well plates (Catalogue number 353962, BD Falcon, Oxford, UK). Simultaneously, test compounds (0.5 μL DMSO solution) were added to 100 μL of the spore-resazurin mixture in quadruplicate to provide a final DMSO solution of 0.5% using an Integra VIAFLO 96 (Intergra, Zizers, Switzerland). For non-spore control wells, MOPS-RPMI-resazurin solution (100 μL) was added instead of the spore-resazurin mixture. The plate was covered with a Breathe Easier membrane (Catalogue No Z763624, Sigma-Aldrich, Dorset, UK), and incubated (35° C., 5% CO2) until fluorescence in the inoculated wells was double that of the control wells (around 24 hr). The fluorescence of each well (545 nm (excitation)/590 nm (emission), gain 800, focal height 5.5 mm) was determined using a multi-scanner (Clariostar: BMG, Buckinghamshire, UK). The percentage inhibition for each well was calculated and the MIC50, MIC75 and MIC90 values were calculated from the concentration-response curve generated for each test compound."}, "[5]": {"system": "Aspergillus fumigatus isolates", "assay": "Broth microdilution assay of planktonic fungal growth (modified EUCAST)", "format": "cell-based", "conditions": "Aspergillus fumigatus", "experimental": "This assay was conducted using a modified method published by EUCAST (Rodriguez-Tudela et al., 2008). Spores of Aspergillus fumigatus (NCPF2010, NCPF7010 (Methionine 220 mutation), NCPF7099 (Glycine G54 mutation) from Public Health England, Wiltshire; TR34/L98H mutants from St Louis Hospital, Paris, France) were cultured in Sabouraud dextrose agar for 3 days. A stock spore suspension was prepared from a Sabouraud dextrose agar culture by washing with PBS-tween (10 mL; PBS containing 0.05% Tween-20, 100 U/mL Penicillin and 100 U/mL Streptomycin). The spore count was assessed using a Neubauer haemocytometer and then adjusted to 10^6 spores/mL with PBS. A working suspension of spores (2×10^5 spores/mL) was prepared in filter sterilised, BSA MOPS RPMI-1640 (50 mL; RPMI-1640 containing 2 mM L-glutamine, 0.5% BSA, 2% glucose, 0.165 M MOPS, buffered to pH 7 with NaOH). For the assay, BSA MOPS RPMI-1640 (50 μL/well) was added throughout the 384-well plate (Catalogue number 353962, BD Falcon, Oxford, UK) first. Test compounds (0.5 μL DMSO solution) were then added in quadruplicate using an Integra VIAFLO 96 (Integra, Zizers, Switzerland), and mixed well using a plate mixer. Subsequently 50 μL of the working spore suspension prepared above was added to all wells except non-spore control wells. For non-spore control wells, BSA MOPS-RPMI solution (50 μL/well) was added instead. The plate was covered with a plastic lid, and incubated (35° C. with ambient air) for 48 hr. The OD of each well at 530 nm was determined using a multi-scanner (Clariostar: BMG, Buckinghamshire, UK). The percentage inhibition for each well was calculated and the MIC50, MIC75 and MIC90 values were calculated from the concentration-response curve generated for each test compound."}, "[6]": {"conditions": "strain ATCC9348, visual inspection (CLSI), read-out: MIC50"}, "[7]": {"conditions": "strain ATCC9348, visual inspection (CLSI), read-out: MIC100"}, "[8]": {"conditions": "isolate NCPF7099, broth microdilution, read-out: MIC75"}},
  "note": "Like-named read-outs stand apart in the source and are kept apart here.",
  "data": [
    {"smiles": "Cc1cc(N2CCN(c3ccc(C(=O)Nc4ccc(F)cc4)cc3)CC2)ccc1OC[C@@H]1CO[C@@](Cn2cncn2)(c2ccc(F)cc2F)C1", "note": "[Compound (I), 4-(4-(4-(((3R,5R)-5-((1H-1,2,4-triazol-1-yl)methyl)-5-(2,4-difluorophenyl)tetrahydrofuran-3-yl)methoxy)-3-methylphenyl)piperazin-1-yl)-N-(4-fluorophenyl)benzamide]", "values": [
      {"measurement": "MIC", "setting": "[1]", "result": 0.0197, "unit": "µM"},
      {"measurement": "MIC50", "setting": "[2]; [6]", "result": "> 8", "unit": "µg/mL"},
      {"measurement": "MIC", "setting": "[2]; [7]", "result": "> 8", "unit": "µg/mL"},
      {"measurement": "CC50 at 1 day", "setting": "[3]; BEAS2B cells", "result": "> 12.2", "unit": "µM"},
      {"measurement": "MIC50", "setting": "[4]", "result": 0.00198, "unit": "µM"},
      {"measurement": "MIC", "setting": "[4]", "result": 0.00502, "unit": "µM"},
      {"measurement": "MIC", "setting": "[5]; NCPF2010, read-out: MIC75", "result": 0.0136, "unit": "µM"},
      {"measurement": "MIC", "setting": "[5]; read-out: MIC75", "result": 0.0567, "unit": "µM"},
      {"measurement": "MIC", "setting": "[5]; [8]", "result": 0.0165, "unit": "µM"}
    ]},
    {"smiles": "CC[C@@H]([C@H](C)O)n1ncn(-c2ccc(N3CCN(c4ccc(OC[C@@H]5CO[C@@](Cn6cncn6)(c6ccc(F)cc6F)C5)cc4)CC3)cc2)c1=O", "note": "[Posaconazole]", "values": [
      {"measurement": "MIC", "setting": "[1]", "result": 0.0715, "unit": "µM"},
      {"measurement": "MIC50", "setting": "[2]; [6]", "result": 0.25, "unit": "µg/mL"},
      {"measurement": "MIC", "setting": "[2]; [7]", "result": 1, "unit": "µg/mL"},
      {"measurement": "CC50 at 1 day", "setting": "[3]; BEAS2B cells", "result": "> 14.3", "unit": "µM"},
      {"measurement": "MIC50", "setting": "[4]", "result": 0.00364, "unit": "µM"},
      {"measurement": "MIC", "setting": "[4]", "result": 0.00694, "unit": "µM"},
      {"measurement": "MIC", "setting": "[5]; read-out: MIC75", "result": 0.15, "unit": "µM"},
      {"measurement": "MIC", "setting": "[5]; [8]", "result": 0.112, "unit": "µM"}
    ]},
    {"smiles": "C[C@@H](c1ncncc1F)[C@](O)(Cn1cncn1)c1ccc(F)cc1F", "note": "[Voriconazole]", "values": [
      {"measurement": "MIC", "setting": "[1]", "result": 0.596, "unit": "µM"},
      {"measurement": "MIC50", "setting": "[2]; ATCC9348", "result": "> 8", "unit": "µg/mL"},
      {"measurement": "MIC", "setting": "[2]; ATCC9348, read-out: MIC100", "result": "> 8", "unit": "µg/mL"},
      {"measurement": "CC50 at 1 day", "setting": "[3]; read-out: BEAS2B Cell Viability CC50", "result": "> 28.6", "unit": "µM"},
      {"measurement": "MIC50", "setting": "[4]", "result": 0.0908, "unit": "µM"},
      {"measurement": "MIC", "setting": "[4]", "result": 0.168, "unit": "µM"},
      {"measurement": "MIC", "setting": "[5]; read-out: MIC75", "result": "> 2.86", "unit": "µM"},
      {"measurement": "MIC", "setting": "[5]; [8]", "result": 0.0967, "unit": "µM"}
    ]}
  ]
}
